From BindingDB's records for doi:10.1016/0960-894X(95)00509-R (1995)

Biological target: Platelet-activating factor receptor (Oryctolagus cuniculus)
Assay: Tested in vitro for antagonistic activity to displace [3H]PAF from rabbit platelet membrane PAF receptors

Row | Ki | SMILES
1 | 120 nM | CN(C)C(=O)n1cc(C(=O)c2ccn3c2CSC3c2cccnc2)c2cc(OCc3ccccc3)ccc21 (stereo not given) [5-Benzyloxy-3-(3-pyridin-3-yl-1H-pyrrolo[1,2-c]thiazole-7-carbonyl)-indole-1-carboxylic acid dimethylamide]
2 | 13 nM | CN(C)C(=O)n1cc(C(=O)c2ccn3c2CSC3c2cccnc2)c2ccc(Cc3ccccc3)cc21 (stereo not given) [6-Benzyl-3-(3-pyridin-3-yl-1H-pyrrolo[1,2-c]thiazole-7-carbonyl)-indole-1-carboxylic acid dimethylamide]
3 | 17 nM | CN(C)C(=O)n1cc(C(=O)c2ccn3c2CSC3c2cccnc2)c2ccc(OCc3ccccc3)cc21 (stereo not given) [6-Benzyloxy-3-(3-pyridin-3-yl-1H-pyrrolo[1,2-c]thiazole-7-carbonyl)-indole-1-carboxylic acid dimethylamide]
4 | 23 nM | CN(C)C(=O)n1cc(C(=O)c2ccn3c2CSC3c2cccnc2)c2ccc(-c3ccccc3)cc21 (stereo not given) [6-Phenyl-3-(3-pyridin-3-yl-1H-pyrrolo[1,2-c]thiazole-7-carbonyl)-indole-1-carboxylic acid dimethylamide]
5 | 327 nM | O=C(c1ccn2c1CSC2c1cccnc1)c1c[nH]c2cccc(O)c12 (stereo not given) [(4-Hydroxy-1H-indol-3-yl)-(3-pyridin-3-yl-1H-pyrrolo[1,2-c]thiazol-7-yl)-methanone]
6 | 180 nM | O=C(c1ccn2c1CSC2c1cccnc1)c1c[nH]c2ccc(OCc3ccccc3)cc12 (stereo not given) [(5-Benzyloxy-1H-indol-3-yl)-(3-pyridin-3-yl-1H-pyrrolo[1,2-c]thiazol-7-yl)-methanone]
7 | 64 nM | O=C(c1ccn2c1CSC2c1cccnc1)c1c[nH]c2cc(OCc3ccccc3)ccc12 (stereo not given) [(6-Benzyloxy-1H-indol-3-yl)-(3-pyridin-3-yl-1H-pyrrolo[1,2-c]thiazol-7-yl)-methanone]
8 | 90 nM | O=C(c1ccn2c1CSC2c1cccnc1)c1c[nH]c2c(OCc3ccccc3)cccc12 (stereo not given) [(7-Benzyloxy-1H-indol-3-yl)-(3-pyridin-3-yl-1H-pyrrolo[1,2-c]thiazol-7-yl)-methanone]
9 | 7 nM | Cn1cc(C(=O)c2ccn3c2CSC3c2cccnc2)c2ccc(-c3ccc(F)cc3)cc21 (stereo not given) [[6-(4-Fluoro-phenyl)-1-methyl-1H-indol-3-yl]-(3-pyridin-3-yl-1H-pyrrolo[1,2-c]thiazol-7-yl)-methanone]
10 | 75 nM | O=C(c1ccn2c1CSC2c1cccnc1)c1c[nH]c2cc(-c3ccc(F)cc3)ccc12 (stereo not given) [[6-(4-Fluoro-phenyl)-1H-indol-3-yl]-(3-pyridin-3-yl-1H-pyrrolo[1,2-c]thiazol-7-yl)-methanone]

Continued, molecule first:

Row | SMILES | Ki
11 | CN(C)C(=O)Cn1cc(C(=O)c2ccn3c2CSC3c2cccnc2)c2ccc(-c3ccc(F)cc3)cc21 (stereo not given) [2-[6-(4-Fluoro-phenyl)-3-(3-pyridin-3-yl-1H-pyrrolo[1,2-c]thiazole-7-carbonyl)-indol-1-yl]-N,N-dimethyl-acetamide] | 0.7 nM
12 | CN(C)C(=O)n1cc(C(=O)c2ccn3c2CSC3c2cccnc2)c2ccccc21 (stereo not given) [3-(3-Pyridin-3-yl-1H-pyrrolo[1,2-c]thiazole-7-carbonyl)-indole-1-carboxylic acid dimethylamide] | 95 nM
13 | CC(C)(C)OC(=O)n1cc(C(=O)c2ccn3c2CSC3c2cccnc2)c2ccccc21 (stereo not given) [3-(3-Pyridin-3-yl-1H-pyrrolo[1,2-c]thiazole-7-carbonyl)-indole-1-carboxylic acid tert-butyl ester] | 110 nM
14 | CN(C)C(=O)n1cc(C(=O)c2ccn3c2CSC3c2cccnc2)c2ccc(Oc3ccc(F)cc3)cc21 (stereo not given) [6-(4-Fluoro-phenoxy)-3-(3-pyridin-3-yl-1H-pyrrolo[1,2-c]thiazole-7-carbonyl)-indole-1-carboxylic acid dimethylamide] | 1.7 nM
15 | NC(=O)n1cc(C(=O)c2ccn3c2CSC3c2cccnc2)c2ccc(-c3ccc(F)cc3)cc21 (stereo not given) [6-(4-Fluoro-phenyl)-3-(3-pyridin-3-yl-1H-pyrrolo[1,2-c]thiazole-7-carbonyl)-indole-1-carboxylic acid amide] | 6 nM
16 | CCNC(=O)n1cc(C(=O)c2ccn3c2CSC3c2cccnc2)c2ccc(-c3ccc(F)cc3)cc21 (stereo not given) [6-(4-Fluoro-phenyl)-3-(3-pyridin-3-yl-1H-pyrrolo[1,2-c]thiazole-7-carbonyl)-indole-1-carboxylic acid ethylamide] | 19 nM
17 | NNC(=O)n1cc(C(=O)c2ccn3c2CSC3c2cccnc2)c2ccc(-c3ccc(F)cc3)cc21 (stereo not given) [6-(4-Fluoro-phenyl)-3-(3-pyridin-3-yl-1H-pyrrolo[1,2-c]thiazole-7-carbonyl)-indole-1-carboxylic acid hydrazide] | 25 nM
18 | CN(C)C(=O)n1cc(C(=O)c2ccn3c2CSC3c2cccnc2)c2ccc(Sc3ccc(F)cc3)cc21 (stereo not given) [6-(4-Fluoro-phenylsulfanyl)-3-(3-pyridin-3-yl-1H-pyrrolo[1,2-c]thiazole-7-carbonyl)-indole-1-carboxylic acid dimethylamide] | 17 nM
19 | CN(C)C(=O)n1cc(C(=O)c2ccn3c2CSC3c2cccnc2)c2ccc(Cl)cc21 (stereo not given) [6-Chloro-3-(3-pyridin-3-yl-1H-pyrrolo[1,2-c]thiazole-7-carbonyl)-indole-1-carboxylic acid dimethylamide] | 89 nM
20 | O=C(c1ccn2c1CSC2c1cccnc1)c1cn(C(=O)N2CCOCC2)c2ccccc12 (stereo not given) [Morpholin-4-yl-[3-(3-pyridin-3-yl-1H-pyrrolo[1,2-c]thiazole-7-carbonyl)-indol-1-yl]-methanone] | 225 nM
